These results are taken from patent publication US11472766B2, “Lipid nanoparticle composition” (Suzhou Abogen Biosciences Co., Ltd., priority 2020, dated 2022).

The structures appear in SMILES notation.

Data set [1] can be described thus: Lipid nanoparticle size by dynamic light scattering (Malvern Zetasizer Nano ZS). In kind it is physicochemical. The conditions noted are these: LNP: cationic lipid/DSPC/cholesterol/PEG-lipid 50:10:38.5:1.5, hEPO mRNA; Table 3. As to the method:
(§1) Briefly, a cationic lipid provided herein, DSPC, cholesterol, and PEG-lipid were solubilized in ethanol at a molar ratio of 50:10:38.5:1.5, and mRNA were diluted in 10 to 50 mM citrate buffer, pH=4. The LNPs were prepared at a total lipid to mRNA weight ratio of approximately 10:1 to 30:1 by mixing the ethanolic lipid solution with the aqueous mRNA solution at a volume ratio of 1:3 using a microfluidic apparatus, total flow rate ranging from 9-30 mL/min. Ethanol were thereby removed and replaced by DPBS using dialysis. Finally, the lipid nanoparticles were filtered through a 0.2 μm sterile filter.
(§2) Lipid nanoparticle size were determined by dynamic light scattering using a Malvern Zetasizer Nano ZS (Malvern UK) using a 173° backscatter detection mode. The encapsulation efficiency of lipid nanoparticles were determined using a Quant-it Ribogreen RNA quantification assay kit (Thermo Fisher Scientific, UK) according to the manufacturer's instructions.

Data set [2] deals with human erythropoietin (hEPO) mRNA. Nature of the data set: Animal study: hEPO expression after tail vein injection of LNPs encapsulating hEPO mRNA (serum ELISA). It is filed as in vivo. As to conditions: hEPO level, female ICR mice, 0.5 mg/kg, 6 hours post administration, class symbols, Table 3. On the procedure: Lipid nanoparticles comprising compounds 1-10 encapsulating human erythropoietin (hEPO) mRNA were systemically administered to 6-8 week old female ICR mice (Xipuer-Bikai, Shanghai) at 0.5 mg/kg dose by tail vein injection and mice blood were sampled at specific time points (e.g., 6 hours) post administration. In addition to the aforementioned tested groups, lipid nanoparticles comprising dilinoleylmethyl-4-dimethylaminobutyrate (DLin-MC3-DMA, usually abbreviated to MC3) encapsulating hEPO mRNA were similarly administered at the same dose to age and gender comparative groups of mice as a positive control.
Mice were euthanized by CO2 overdoses after the last sampling time point. Serum were separated from total blood by centrifugation at 5000 g for 10 minutes at 4° C., snap-frozen and stored at −80° C. for analysis. ELSA assay were carried out using a commercial kit (DEP00, R&D systems) according to manufacturer's instructions.
Characteristics of tested lipid nanoparticles, including hEPO expression levels (μg/ml) measured from the tested group are listed the tables below and plotted in FIG. 2.

Data set [3] can be described thus: Encapsulation efficiency of lipid nanoparticles (Quant-it Ribogreen RNA quantification assay). In kind it is physicochemical. The conditions noted are these: LNP encapsulating hEPO mRNA; Table 3. On the procedure: as §1, §2

In data set [1], `CCCCCCCCC(CCCCCC)COC(=O)CCCCCN(CCCCCC(=O)OCC(CCCCCC)CCCCCCCC)CCN(CCOC(C)=O)C1CCC1` (stereo not shown) [Compound 64] gave a polydispersity of 0.181 and a size nm of 84.93 nm. For the same compound, the “Expression at 6 h (μg/ml)” value in data set [2] was “D (<0.1)”. Further, the “Encapsulation Efficiency” value in data set [3] stood at 84.1%.
The matching figures for `CCCCCCCCC(CCCCCCCC)CNC(=O)CCCCCN(CCCCCC(=O)OCC(CCCCCCCC)CCCCCCCC)CCN(CCO)C1CCCC1` [Compound 136]: 0.063, 61.17 nm, “A (≥2)” and 94.29%.
In data set [1], `CCCCCCCCC(CCCCCCCC)COC(=O)COCCOCCN(CCOCCOCC(=O)OCC(CCCCCCCC)CCCCCCCC)CCN(CCO)C1CCC1` [Compound 103] gave a polydispersity of 0.054 and a size nm of 67.57 nm. For the same compound, the “Expression at 6 h (μg/ml)” value in data set [2] was “C (≥0.1 and <1)”. In addition, the “Encapsulation Efficiency” value in data set [3] was 94.41%.
Consider `CCCCCCCCC(CCCCCCCC)COC(=O)CCCCCN(CCCCCC(=O)OCC(CCCCCCCC)CCCCCCCC)CCN(CCO)C1CCC(F)(F)CC1` [Compound 78], for which, in data set [1], the polydispersity worked out at 0.091 and the size nm stood at 44.47 nm. Besides, in data set [2], the “Expression at 6 h (μg/ml)” value was “C (≥0.1 and <1)”. Further, in data set [3], the “Encapsulation Efficiency” value is listed as 92.4%.
In data set [1], `CCCCCCCCC(CCCCCCCC)COC(=O)CCCCCN(CCCCCC(=O)OCC(CCCCCCCC)CCCCCCCC)CCN(CCC)C1CCCCC1O` (stereo not shown) [Compound 69] had a polydispersity of 0.06 and a size nm of 58.74 nm. The “Expression at 6 h (μg/ml)” value in data set [2] is “D (<0.1)”. Also, in data set [3], the “Encapsulation Efficiency” value is on record as 78.3%.
As to `CCCCCCCCC(CCCCCC)COC(=O)CCCCCN(CCCCCC(=O)OCC(CCCCCC)CCCCCCCC)CCN(CCCCCCO)C1CCC1` (stereo not shown) [Compound 30], in data set [1], the polydispersity was determined as 0.071 and the size nm came to 80.46 nm. In addition, the “Expression at 6 h (μg/ml)” value in data set [2] is “B (≥1 and <2)”. In addition, in data set [3], the “Encapsulation Efficiency” value is 95.9%.
In data set [1], `CCCCCCCCC(CCCCCC)COC(=O)CCCCCN(CCCCCC(=O)OCC(CCCCCC)CCCCCCCC)CCN1CCC(O)C1` (stereo not shown) [Compound 95] had a polydispersity of 0.285 and a size nm of 82.43 nm. For the same compound, in data set [2], the “Expression at 6 h (μg/ml)” value is “D (<0.1)”. Moreover, the “Encapsulation Efficiency” value in data set [3] was 97.2%.
Consider `CCCCCCCCC(CCCCCC)CNC(=O)CCCCCN(CCCCCC(=O)NCC(CCCCCC)CCCCCCCC)CCN(CCO)C1CCCCCC1` (stereo not shown) [Compound 112], for which, in data set [1], the polydispersity stood at 0.111 and the size nm is 49.51 nm. The “Expression at 6 h (μg/ml)” value in data set [2] is “C (≥0.1 and <1)”. The “Encapsulation Efficiency” value in data set [3] was 95.9%.
As to `CCCCCCCCC(CCCCCC)C(CCC)OC(=O)CCCCCN(CCCCCC(=O)OC(CCC)C(CCCCCC)CCCCCCCC)CCN(CCO)C1CCC1` (stereo not shown) [Compound 40], in data set [1], the polydispersity stood at 0.081 and the size nm was determined as 66.39 nm. For the same compound, in data set [2], the “Expression at 6 h (μg/ml)” value was “C (≥0.1 and <1)”. In addition, the “Encapsulation Efficiency” value in data set [3] was 99.2%.
In data set [1], `CCCCCCCCC(CCCCCC)CNC(=O)CCCCCN(CCCCCC(=O)OCC(CCCCCC)CCCCCCCC)CCN(CCO)C1CCC1` (stereo not shown) [Compound 106] displayed a polydispersity of 0.174 and a size nm of 76.97 nm. For the same compound, the “Expression at 6 h (μg/ml)” value in data set [2] was “A (≥2)”. The “Encapsulation Efficiency” value in data set [3] was 95.14%.
In data set [1], `CCCCCCCCC(CCCCCC)COC(=O)CCCCCN(CCCCCC(=O)OCC(CCCCCC)CCCCCCCC)CCN(C)C1CCC(O)CC1` (stereo not shown) [Compound 54] returned a polydispersity of 0.051 and a size nm of 102.7 nm. In data set [2], the “Expression at 6 h (μg/ml)” value is “D (<0.1)”. In addition, the “Encapsulation Efficiency” value in data set [3] is 97.2%.
Consider `CCCCCCCCC(CCCCCCCC)COC(=O)CCCCCN(CCCCCC(=O)OCC(CCCCCCCC)CCCCCCCC)CCN(CCCCCC)C1CCC(O)CC1` (stereo not shown) [Compound 75], for which, in data set [1], the polydispersity was determined as 0.032 and the size nm stood at 62.36 nm. The “Expression at 6 h (μg/ml)” value in data set [2] was “A (≥2)”. Besides, the “Encapsulation Efficiency” value in data set [3] was 94.1%.
Take `CCCCCCCCC(CCCCCC)COC(=O)CCCCCN(CCCCCC(=O)OCC(CCCCCC)CCCCCCCC)CCN(C1CCCCC1)C1CCC(O)CC1` (stereo not shown) [Compound 99]: in data set [1], the polydispersity stood at 0.1 and the size nm came out at 66.06 nm. The “Expression at 6 h (μg/ml)” value in data set [2] is “C (≥0.1 and <1)”. Further, the “Encapsulation Efficiency” value in data set [3] stood at 100.2%.
Take `CCCCCCCCC(CCCCCC)COC(=O)CCCCCC(CCCCCC(=O)OCC(CCCCCC)CCCCCCCC)CN(CCO)C1CCCCCCC1` (stereo not shown) [Compound 17]: in data set [1], the polydispersity is 0.209 and the size nm amounted to 57.6 nm. In addition, the “Expression at 6 h (μg/ml)” value in data set [2] is given as “D (<0.1)”. Moreover, in data set [3], the “Encapsulation Efficiency” value was found to be 18.18%.
In data set [1], `CCCCCCCCC(CCCCCC)CNC(=O)CCCCCN(CCCCCC(=O)OCC(CCCCCC)CCCCCCCC)CCN(CCO)C1CCCC1` (stereo not shown) [Compound 126] showed a polydispersity of 0.101 and a size nm of 78.17 nm. Also, the “Expression at 6 h (μg/ml)” value in data set [2] is recorded as “A (≥2)”. Further, the “Encapsulation Efficiency” value in data set [3] amounted to 100.10%.
Consider `CCCCCCCCC(CCCCCC)C(=O)OCCCCCCN(CCCCCCOC(=O)C(CCCCCC)CCCCCCCC)CCN(CCO)C1CCC1` (stereo not shown) [Compound 45], for which, in data set [1], the polydispersity is reported as 0.032 and the size nm is reported as 71.47 nm. For the same compound, the “Expression at 6 h (μg/ml)” value in data set [2] was “A (≥2)”. Besides, in data set [3], the “Encapsulation Efficiency” value was 96.6%.
The matching figures for `CCCCCCCCC(CCCCCC)CC(=O)NCCCCCN(CCCCCOC(=O)CC(CCCCCC)CCCCCCCC)CCN(CCO)C1CCCCC1` (stereo not shown) [Compound 131]: 0.064, 79.11 nm, “A (≥2)” and 80.00%.
In data set [1], `CCCCCCCCC(CCCCCC)COC(=O)CCCCCN(CCCCCC(=O)OCC(CCCCCC)CCCCCCCC)CCN(CC)C1CCC(O)CC1` (stereo not shown) [Compound 55] had a polydispersity of 0.109 and a size nm of 95.51 nm. Moreover, the “Expression at 6 h (μg/ml)” value in data set [2] is “C (≥0.1 and <1)”. Besides, the “Encapsulation Efficiency” value in data set [3] is listed as 96.7%.
In data set [1], `CCCCCCCCC(CCCCCC)CC(=O)NCCCCCN(CCCCCOC(=O)CC(CCCCCC)CCCCCCCC)CCN(CCO)C1CCCCCC1` (stereo not shown) [Compound 132] yielded a polydispersity of 0.129 and a size nm of 70.33 nm. Further, the “Expression at 6 h (μg/ml)” value in data set [2] is “A (≥2)”. Also, the “Encapsulation Efficiency” value in data set [3] is on record as 88.00%.
In data set [1], `CCCCCCCCCCC(CCCCCC)COC(=O)CCCCCCN(CCCCCCC(=O)OCC(CCCCCC)CCCCCCCCCC)CCN(CCO)C1CCC1` (stereo not shown) [Compound 43] returned a polydispersity of 0.068 and a size nm of 74.8 nm. Besides, the “Expression at 6 h (μg/ml)” value in data set [2] is “B (≥1 and <2)”. For the same compound, in data set [3], the “Encapsulation Efficiency” value was 97.3%.
In data set [1], `CCCCCCCCC(CCCCCC)CNC(=O)CCCCCN(CCCCCC(=O)NCC(CCCCCC)CCCCCCCC)CCN(CCO)C1CCC1` (stereo not shown) [Compound 107] displayed a polydispersity of 0.11 and a size nm of 106.9 nm. In addition, the “Expression at 6 h (μg/ml)” value in data set [2] is given as “A (≥2)”. The “Encapsulation Efficiency” value in data set [3] is reported as 95.64%.
Consider `CCCCCCCCC(CCCCCC)COC(=O)CCCCCN(CCCCCC(=O)OCC(CCCCCC)CCCCCCCC)CCN(CCO)C1CCC(F)(F)CC1` (stereo not shown) [Compound 23], for which, in data set [1], the polydispersity was 0.14 and the size nm came out at 60.64 nm. The “Expression at 6 h (μg/ml)” value in data set [2] was “B (≥1 and <2)”. Also, in data set [3], the “Encapsulation Efficiency” value came out at 93.9%.
In data set [1], `CCCCCCCCNC(=O)CCCCCN(CCCCCC(=O)NCCCCCCCC)CCN(CCO)C1CCCCC1` [Compound 123] had a polydispersity of 0.285 and a size nm of 264.9 nm. Also, in data set [2], the “Expression at 6 h (μg/ml)” value was “A (≥2)”. Moreover, the “Encapsulation Efficiency” value in data set [3] was found to be 30.1%.
In data set [1], `CCCCCCCCC(CCCCCCCC)COC(=O)CCCCCN(CCCCCC(=O)OCC(CCCCCCCC)CCCCCCCC)CCN(CCO)C1CC(c2ccccc2)C1` (stereo not shown) [Compound 76] returned a polydispersity of 0.096 and a size nm of 54.94 nm. Moreover, the “Expression at 6 h (μg/ml)” value in data set [2] is “C (≥0.1 and <1)”. Moreover, the “Encapsulation Efficiency” value in data set [3] is reported as 91.71%.
Turning to `CCCCCCCCC(CCCCCC)CNC(=O)NCCCCN(CCCCNC(=O)NCC(CCCCCC)CCCCCCCC)CCN(CCO)C1CCC1` (stereo not shown) [Compound 121], in data set [1], the polydispersity is listed as 0.134 and the size nm stood at 71.02 nm. For the same compound, the “Expression at 6 h (μg/ml)” value in data set [2] is “B (≥1 and <2)”. In addition, the “Encapsulation Efficiency” value in data set [3] is reported as 94.5%.
